# Test results: paper PMC7156458, “Synthetic biology based construction of biological activity-related library of fungal decalin-containing diterpenoid pyrones” (Nature Communications, 2020)
# Where two headings read alike, the source gives them in different places.
# Tests used:
# [1] = system: l(2)mbn cells; test: cytotoxicity in Drosophila l(2)mbn cells; assay type: cell-based; conditions: for Luminescence Raw1: replicate 1; for % viability, viability 1: replicate 1, relative to DMSO 1%; for Luminescence Raw2: replicate 2; for % viability, viability 2: replicate 2, relative to DMSO 1%
# Description: (§1) We screened the DDPs on the Drosophila assay system for cytotoxicity, inhibitory activity of innate immune signalling and insecticidal activity. The cytotoxicity of the DDPs was evaluated using two cell lines, embryonic macrophage-derived DL1 cells[58]–[60] and larval blood cell-derived l(2)mbn cells, and their IC50 values are listed in Supplementary Table 23.
# [2] = system: DL1 cells; test: cytotoxicity in Drosophila DL1 cells; assay type: cell-based; conditions: DL1 cells; for % viability, viability 1: replicate 1, relative to DMSO 1%; for % viability, viability 2: replicate 2, relative to DMSO 1%; for IC50: cytotoxicity
# Description: as §1
# [3] = system: human immunodeficiency virus-1 (HIV-1); test: anti-HIV MAGI assay; assay type: cell-based; conditions: Human immunodeficiency virus 1, MAGI, read-out: Avg. EC50 (nM), anti-HIV; average of numeric determinations
# Source text: We examined the inhibitory activities of DDPs against various species of bacteria (both gram-negative and gram-positive bacteria), fungi and viruses. […] In contrast, preliminary screening of the DDPs for anti-viral agents with hepatitis B virus (HBV), measles virus (MV), Epstein-Barr virus (EBV), herpes simplex virus (HSV) and human immunodeficiency virus-1 (HIV-1) indicated their selective inhibition of HIV.
# [4] = system: MAGI cells; test: cytotoxicity in the anti-HIV assay (CC50); assay type: cell-based; conditions: single determinations
# [5] = system: MCF-7 cells; test: cell cytotoxic effects against MCF-7 cells (72 h), A490; assay type: cell-based, human; conditions: for A490 ave: MCF-7, 72 h
# [6] = Homo sapiens, MCF7, 72 h, read-out: A490 (control =1) ave
smiles,measurement,setting,value
"C=C1CCC2C(C)(CCC=C(C)C)C(O)CCC2(C)C1Cc1c(OC)oc(C)c(C)c1=O (stereo not shown) [Compound 15, viridoxin A hydrolysate]",Luminescence Raw1,[1]; 0.04 µM,5571583
same,"% viability, viability 1",[1]; 0.04 µM,88.7303%
same,Luminescence Raw2,[1]; 0.04 µM,5591430
same,"% viability, viability 2",[1]; 0.04 µM,89.0464%
same,Luminescence Raw1,[1]; 0.2 µM,6221854
same,"% viability, viability 1",[1]; 0.2 µM,99.0862%
same,Luminescence Raw2,[1]; 0.2 µM,5568336
same,"% viability, viability 2",[1]; 0.2 µM,88.6786%
same,Luminescence Raw1,[1]; 1 µM,6094827
same,"% viability, viability 1",[1]; 1 µM,97.0632%
same,Luminescence Raw2,[1]; 1 µM,5439516
same,"% viability, viability 2",[1]; 1 µM,86.6271%
same,Luminescence Raw1,[1]; 4 µM,5005443
same,"% viability, viability 1",[1]; 4 µM,79.7142%
same,Luminescence Raw2,[1]; 4 µM,4514031
same,"% viability, viability 2",[1]; 4 µM,71.8882%
same,Luminescence Raw1,[1]; 10 µM,362955
same,"% viability, viability 1",[1]; 10 µM,5.78%
same,Luminescence Raw2,[1]; 10 µM,319326
same,"% viability, viability 2",[1]; 10 µM,5.085%
same,Luminescence Raw1,[1]; 20 µM,109116
same,"% viability, viability 1",[1]; 20 µM,1.738%
same,Luminescence Raw2,[1]; 20 µM,229184
same,"% viability, viability 2",[1]; 20 µM,3.65%
same,IC50,"[1]; cytotoxicity, average±SEM",5.23 ± 0.19 µM
same,IC50,"[1]; read-out: IC50 (1), cytotoxicity, replicate 1",5.42 µM
same,IC50,"[1]; read-out: IC50 (2), cytotoxicity, replicate 2",5.04 µM
same,IC50,"[1]; read-out: IC50 Average, cytotoxicity, average of two replicates",5.23 µM
same,Luminescence Raw1,"[2]; 0.04 µM, replicate 1",2784909
same,"% viability, viability 1",[2]; 0.04 µM,203.06%
same,Luminescence Raw2,"[2]; 0.04 µM, replicate 2",3009267
same,"% viability, viability 2",[2]; 0.04 µM,219.419%
same,Luminescence Raw1,"[2]; 0.2 µM, replicate 1",2743429
same,"% viability, viability 1",[2]; 0.2 µM,200.035%
same,Luminescence Raw2,"[2]; 0.2 µM, replicate 2",2853442
same,"% viability, viability 2",[2]; 0.2 µM,208.057%
same,Luminescence Raw1,"[2]; 1 µM, replicate 1",2896366
same,"% viability, viability 1",[2]; 1 µM,211.186%
same,Luminescence Raw2,"[2]; 1 µM, replicate 2",3157521
same,"% viability, viability 2",[2]; 1 µM,230.228%
same,Luminescence Raw1,"[2]; 4 µM, replicate 1",726344
same,"% viability, viability 1",[2]; 4 µM,52.9608%
same,Luminescence Raw2,"[2]; 4 µM, replicate 2",1230470
same,"% viability, viability 2",[2]; 4 µM,89.7188%
same,Luminescence Raw1,"[2]; 10 µM, replicate 1",281027
same,"% viability, viability 1",[2]; 10 µM,20.4909%
same,Luminescence Raw2,"[2]; 10 µM, replicate 2",344848
same,"% viability, viability 2",[2]; 10 µM,25.1443%
same,Luminescence Raw1,"[2]; 20 µM, replicate 1",282109
same,"% viability, viability 1",[2]; 20 µM,20.5698%
same,Luminescence Raw2,"[2]; 20 µM, replicate 2",296532
same,"% viability, viability 2",[2]; 20 µM,21.6214%
same,IC50,[2]; average±SEM,6.1 ± 1.57 µM
same,IC50,"[2]; read-out: IC50 (1), replicate 1",4.53 µM
same,IC50,"[2]; read-out: IC50 (2), replicate 2",7.66 µM
same,IC50,"[2]; read-out: IC50 Average, average of two replicates",6.1 µM
same,EC50,[3],8.51 nM
same,Cytotoxicity,[4],>10 µM
same,viability at 0.1 µM,[5]; [6],82%
same,viability at 1 µM,[5]; [6],121%
same,viability at 10 µM,[5]; [6],61.8%
same,A490 ave,"[5]; 0.1 µM (DMSO 0.002%), control 1.064",0.873
same,A490 ave,"[5]; 1 µM (DMSO 0.02%), control 1.104",1.333
same,A490 ave,"[5]; 10 µM (DMSO 0.2%), control 1.049",0.649
